# According to US20230332237A1, “Molecular Biomarkers for Predicting Patient Response to Steroid Therapy” (Florida State University Research Foundation, Inc., priority 2022, published 2023):
# Experiments:
# [1] = system: steroid resistant keloid fibroblasts; assay: RNA-seq differential gene expression in steroid resistant keloid fibroblasts following TA treatment; type: cell-based, human; conditions: 10 μM TA for 96 hrs vs DMSO, Padj≤0.05
# Text: (§1) Culture of keloid-derived primary fibroblasts. Surgically excised keloid and normal skin explants were obtained from patients under Florida State University institutional review board guidelines (Approved by the Human Subjects Committee (HSC) of the Florida State University Institutional Review Board; HSC numbers: 2016.19175 and 2017.22173). The explants were cut into small pieces, digested with trypsin, and washed with and cultured in Dulbecco's Modified Eagle Medium containing 10% fetal bovine serum and antibiotic/antimycotic solution maintained at 37.8° C. (98.68° F.) and 5% carbon dioxide. Outgrowth of only primary dermal fibroblasts occurred under our culture conditions, and these were recovered by trypsinization for use in experiments at low passage. The keloid fibroblasts are morphologically identical to commercially obtained normal primary human dermal fibroblasts (HDF; Cell Applications, Inc., San Diego, CA) used as our normal controls. […]
# (§2) RNA extraction. […] The quality and quantity of each RNA sample was measured by Tapestation (Agilent). […]
# (§3) RNA-seq. […] The RNA-seq libraries were sequenced on a NovaSeq 6000 sequencer (Illumina) to obtain 2×100 or 2×150-base reads. […] FASTQC was used to filter out reads of low to moderate quality. Paired-end reads were mapped to the GRCh38 reference genome using Salmon (28). The average mapped reads were 323M reads per sample and average mapped rate was 94.8%. […]
# [2] = system: steroid sensitive keloid fibroblasts; assay: RNA-seq differential gene expression in steroid sensitive keloid fibroblasts following TA treatment; type: cell-based, human; conditions: 10 μM TA for 96 hrs vs DMSO, Padj≤0.05
# Text: as §1, §2, §3
# IGFBP2 = conditions: treatment with prednisolone; literature refs 23, 24; cited from earlier work
# IGF1 = conditions: treatment with prednisolone; literature refs 23, 24; cited from earlier work
# IGFBP1 = conditions: treatment with prednisolone; literature refs 23, 24; cited from earlier work
SMILES,genes downregulated after TA treatment [1],genes upregulated after TA treatment [1],genes downregulated after TA treatment [2],genes upregulated after TA treatment [2],IGFBP2 (IGFBP2),serum IGF1 concentration (IGF1),IGFBP1 (IGFBP1)
"CC1(C)O[C@@H]2C[C@H]3[C@@H]4CCC5=CC(=O)C=C[C@]5(C)[C@@]4(F)[C@@H](O)C[C@]3(C)[C@]2(C(=O)CO)O1 [TA, Triamcinolone Acetonide]",106,131,521,526,,,
C[C@]12C=CC(=O)C=C1CC[C@@H]1[C@@H]2[C@@H](O)C[C@@]2(C)[C@H]1CC[C@]2(O)C(=O)CO [prednisolone],,,,,reduces,increases,reduces
